Test results from patent publication US20030144360A1, “Composition and method for modulating BAR/FXR receptor activity” (Allergan Sales, Inc., priority 2001, published 2003).

Legend:
[1] = molecular target: T1, BAR/FXR (BAR-RXR heterodimer) (UniProt P19793+Q62735); experiment: Transient cotransfection luciferase reporter assay, full-length BAR/FXR and RXR in CV-1 cells; design: repression of the BAR/RXR heterodimer: dose or concentration left out as unconfirmed; settings: for activation of BAR/FXR (luciferase expression): 5 μM, 40 hours
T1 sequence (Q62735 1-469): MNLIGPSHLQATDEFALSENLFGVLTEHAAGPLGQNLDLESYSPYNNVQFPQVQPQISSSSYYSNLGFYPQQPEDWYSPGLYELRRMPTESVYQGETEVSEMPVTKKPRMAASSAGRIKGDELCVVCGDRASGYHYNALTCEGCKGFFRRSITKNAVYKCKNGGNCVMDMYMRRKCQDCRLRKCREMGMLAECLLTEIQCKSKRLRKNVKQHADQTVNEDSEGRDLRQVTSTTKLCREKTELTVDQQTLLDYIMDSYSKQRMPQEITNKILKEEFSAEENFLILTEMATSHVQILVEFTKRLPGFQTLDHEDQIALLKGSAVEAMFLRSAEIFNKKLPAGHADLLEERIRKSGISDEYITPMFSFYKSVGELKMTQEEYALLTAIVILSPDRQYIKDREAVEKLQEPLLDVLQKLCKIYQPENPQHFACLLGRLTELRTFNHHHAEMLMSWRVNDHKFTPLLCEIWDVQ
T1 sequence (P19793 1-462): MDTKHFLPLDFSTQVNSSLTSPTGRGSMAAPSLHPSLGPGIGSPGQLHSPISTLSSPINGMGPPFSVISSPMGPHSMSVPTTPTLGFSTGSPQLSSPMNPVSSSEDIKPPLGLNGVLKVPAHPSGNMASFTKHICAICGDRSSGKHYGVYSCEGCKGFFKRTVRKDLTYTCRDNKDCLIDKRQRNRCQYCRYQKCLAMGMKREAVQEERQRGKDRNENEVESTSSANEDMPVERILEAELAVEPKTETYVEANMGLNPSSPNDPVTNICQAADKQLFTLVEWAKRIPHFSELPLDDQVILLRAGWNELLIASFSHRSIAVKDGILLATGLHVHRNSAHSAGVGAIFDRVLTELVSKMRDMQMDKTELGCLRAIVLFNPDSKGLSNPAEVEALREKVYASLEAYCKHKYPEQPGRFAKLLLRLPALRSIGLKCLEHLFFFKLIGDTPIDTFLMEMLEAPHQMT

[2] = molecular target: T2, Gal-L-RAR (Homo sapiens, UniProt P10276); experiment: Gal-L-RAR fusion with Gal 4 reporter (MH100×4) in CV-1 cells; format: cell-based; settings: 5 μM
T2 construct: expressed in transfected cells; host or cells: CV-1
T2 sequence (P10276 156-462 limits assumed): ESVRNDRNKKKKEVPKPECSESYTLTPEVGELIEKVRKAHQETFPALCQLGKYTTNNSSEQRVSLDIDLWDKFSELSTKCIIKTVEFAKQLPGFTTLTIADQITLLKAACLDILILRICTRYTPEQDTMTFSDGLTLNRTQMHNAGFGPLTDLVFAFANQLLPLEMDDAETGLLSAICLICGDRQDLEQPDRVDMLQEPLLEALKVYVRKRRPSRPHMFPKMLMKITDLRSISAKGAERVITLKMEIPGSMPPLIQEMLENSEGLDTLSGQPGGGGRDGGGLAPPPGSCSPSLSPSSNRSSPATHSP

[3] = tested on: HepG2 cells; experiment: Northern blot analysis of BAR/FXR target genes in HepG2 cells; format: cell-based, human; settings: for BAR/FXR expression / CYP7A expression / GAPDH expression / transcription of SHP: 24 hours
Experimental: One day prior to treatment, confluent HepG2 and differentiated Caco-2 cells were switched to phenol red-free media containing resin-charcoal stripped FBS and then treated for and additional 24 hours with the indicated compounds. Total RNA was isolated using the Trizol reagent. Northern blots were prepared from polyA^+ RNA using the Oligotex method (Qiagen) and analyzed with the following probes: human CYP7A (accession #M93133) nucleotides 1617-2576 (Karam and Chiang, 185 Biochem. Biophys. Res. Commun. 588 (1992)), human SHP (accession #L76571) nucleotides 888-1355, human IBABP (accession # A1311734), an EST containing the entire coding sequence of IBABP.
We next tested the ability of AGN 29 and AGN 31 to regulate BAR/FXR target genes. We used the hepatoma cell line HepG2 as a hepatocyte model as this cell line has been used extensively to study cholesterol metabolism and bile acid-mediated gene regulation. We monitored the expression of two well known BAR/FXR target genes: CYP7A, the rate-limiting enzyme for bile acid synthesis, is down regulated by bile acids in HepG2 cells.
To verify that AGN34 represses BAR/FXR […], we looked at its effect on BAR/FXR target genes in cultured cells by Northern blot analysis.

[4] = molecular target: T3, BAR:RXR heterodimers (UniProt P19793+Q62735); experiment: Co-activator (GRIP1) gel shift displacement assay, BAR:RXR heterodimer; format: binding
T3 construct: nucleic acid regions encoding the following full-length proteins were cloned into a CMV expression vector; made in house; host or cells: receptors: in vitro translation; GST-GRIP1: E. coli
T3 sequence (Q62735 1-469): T1 sequence (Q62735 1-469)
T3 sequence (P19793 1-462): T1 sequence (P19793 1-462)
Excerpt: Coactivators, which bind agonist-activated nuclear receptors including, without limitation, RAR and RXR, function to assist the activated nuclear receptor exert its activity as a transcription factor. Characterized co-activators include CBP, p300, RIP140, SRC-1, ACTR, TIF2 (also called GRIP 1) and TIFI. In most cases coactivator will not bind the receptor in the absence of an agonist, moreover, receptor antagonists will often block coactivator binding, either directly or through the recruitment of a corepressor. Coactivator recruitment assays are therefore a valuable method for directly visualizing associative changes to a receptor caused by the addition of a prospective ligand.
GRIP 1 was expressed as a fusion protein with glutathione-S-transferase, an enzyme which selectively binds glutathione and can thus be used as an affinity reagent. See e.g., U.S. Pat. No. 5,654,176. The GST-GRIP1 fusion protein was expressed in E. coli and purified on glutathione-Sepharose columns. In vitro translated BAR/FXR\RXR (0.6-1.2 μl each) and GST-GRIP 1 (5 μg) were incubated for 30 min at room temperature with 100,000 cpm of the E. coli DNA polymerase Klenow fragment-labeled probes in 10 mM Tris (pH 8.0), 50 mM KCl, 6% glycerol, 0.05% NP-40, 1 mM DTT, 12.5 ng/μl poly dI-dC, and the indicated ligands. Complexes were electrophoresed through 5% polyacrylamide gel in […] (45 mM Tris-base, 45 mM boric acid, 1 mM EDTA) at room temperature. Oligonucleotide probes were made to identify specific receptor dimers; an optimized DR-1 (direct repeat 1; a nucleotide sequence motif to which RXR will bind) probe (5′-[…]) (SEQ ID NO: 12) was used for RXR homodimers and the IR-1 sequence of the IBABP promoter, to which the BAR/RXR heterodimer binds, was used for BAR/RXR heterodimers.
We next tested the ability of AGN34 to displace the GRIP-1 co-activator from BAR. […] Competition experiments using the BAR/RXRm heterodimer binds yielded the same results as obtained using the BAR/RXR heterodimer. (FIG. 4D).

repression of the BAR/RXR heterodimer [1]	repression of CDCA-activated transcription ([1]; 0.03 μM AGN 34, constant concentration of CDCA)	repression of CDCA-activated BAR-mediated transcription ([1]; 50 μM CDCA + 1 μM AGN 34)	basal activity of luciferase gene expression ([1]; AGN 34 (1 μM) without CDCA)	concentration showing maximal activity (repression) ([1]; constant concentration of CDCA)	doses for full displacement of co-activator, LG 268 versus RXR:BAR-CDCA complexes [4]	dissociation of BAR:RXR:GRIP1 complex ([4]; 0.75 μM AGN 29 as agonist, increasing concentrations of AGN 34)	displacement of co-activator (GRIP1) ([4]; heterodimers in which LG 268 was added)	CYP7A expression ([3]; AGN 34 alone)	CYP7A expression ([3]; combination of AGN 34 and CDCA)	SMILES	EC50 [1]	activation of BAR/FXR (luciferase expression) [1]	activation of RAR [2]	BAR/FXR expression ([3]; 10 μM)	CYP7A expression ([3]; 10 μM)	GAPDH expression ([3]; 10 μM)	transcription of SHP ([3]; 10 μM)	formation of BAR:RXR:GRIP1 complex ([4]; 0.75 μM)	basal SHP levels ([3]; 1 μM AGN 34, 24 hours)
										CCCC/C(=C\c1ccc(C(=O)O)cc1)c1ccc2c(c1)C(C)(C)CCC2(C)C [AGN 31, 4-[2-(5,5,8,8-Tetramethyl-5,6,7,8-tetrahydronaphthalen-2-yl)hex-1-enyl]benzoic Acid]	~2 µM	85 fold	loss of specificity for RAR	no effect	repress	no effect	induce		
										Cc1cc2c(cc1/C(=C/c1ccc(C(=O)O)cc1)[Si](C)(C)C)C(C)(C)CCC2(C)C [AGN 29, (Z)-4-[2-(3,5,5,8,8-Pentamethy1-5,6,7,8-tetrahydronaphthalen-2-yl)-2-(trimethylsilyl)vinyl]benzoic Acid]	~2 µM	91 fold	loss of specificity for RAR	no effect	repress	no effect	induce	form a complex	
~10 fold	approximately 85%	~10 fold	did not affect	1 µM	Much lower doses	progressive dissociation of that complex	fully displaces	repressed	repressed even further	CCCCCCOc1c(\C(C)=C/C=C/C(C)=C/C(=O)O)cc(C(C)C)cc1C(C)C [AGN 34, (2E, 4E, 6Z)-7-(2-Hexyloxy-3,5-diisopropylphenyl)-3-methylocta-2,4,6-trienoic Acid]									did not affect
